# Assays:
# [1] = system: squamous cell carcinoma and prostatic adenocarcinoma; settings: in vitro; cited from earlier work
# [2] = system: HL60; test: Transcriptome (microarray) analysis of treated HL60 cells; format: cell-based, human; settings: for number of genes modulated by the three different agents: HL60 cell line, genes affected by DFO, DFX and mAb A24 together
# [3] = system: AML cells lines; test: CD14 and CD11b monocytic marker expression in AML cell lines; format: cell-based
# Procedure: Peripheral blood cells from AML patients and healthy donors was analyzed after obtaining their written informed consent (please refer to supplementary table 2 for additional information). Peripheral blood was collected at the initial diagnosis previously to treatment administration. Mononuclear cells were separated by Ficoll-hypaque (PAA laboratories) density centrifugation and resuspended in IMDM medium (Invitrogen) supplemented with 15% fetal calf serum (FCS) (Hyclone), 100 ng/ml Stem Cell Factor (SCF), 10 ng/ml Interleukin 3 (IL-3) and 25 ng/ml FLT3-L (all purchased from R&D Systems). HL60 and U937 cell lines were a kind gift from J. M. Cayuela (Saint-Louis Hospital, Paris). Cells were cultured in RPMI-1640 medium (Invitrogen) supplemented with 5% FCS and antibiotics.
# The ability of iron deprivation to override blockade of AML cells differentiation was tested. In AML cells lines, monocytic markers CD14 and CD11b (which are induced by the vitamin D3 (VD), a monocytic differentiating agent) were induced by iron deprivation by A24 mAb, DFO and DFX. Induction of cell surface markers was accompanied by characteristic cytological modifications of monocytes. Iron deprivation induced cytoplasm enlargement, loss of cytoplasm basophilia and azurophilic granules. […]
# [4] = system: c-Jun, c-Fos; test: c-Jun and c-Fos expression in HL60 cells; format: cell-based; settings: VD 250 nM, A24 10 μg/ml, DFO 5 μM, DFX 3 μM
# Procedure: FIG. 4 depicts the change in c-Jun expression following treatment of HL60 cells with vitamin D3 (VD, 250 nM), A24 (A24, 10 μg/ml), deferoxamine (DFO, 5 μM) or deferasirox (DFX, 3 μM).
# FIG. 5 depicts the c-Fos and c-Jun mRNA levels (evaluated by quantitative RT-PCR and normalized to GAPDH mRNA levels) in HL60 cells treated for 48 h with A24 (A24, 10 μg/ml); deferoxamine (DFO, 5 μM); or deferasirox (DFX, 3 μM) (mean±SEM, n=4).
# Total RNA was extracted using Nucleospin RNA II (Macherey-Nagel). Following DNAse treatment, first-strand cDNA was synthesized using a SuperScript II reverse transcriptase (Invitrogen). Quantitative real-time PCR was performed with a Chromo-IV PCR System (MJ Research) and PCR products were quantified using SybrGreen Technology (Jumpstart mastermix, Sigma Aldrich). Results of real-time quantitative PCR were interpreted using the delta-delta Ct method (Livak et al. (2001) Methods 25:402-408). The complete list of primer sequences used is available in supplementary data section, table 4.
# By comparing (with a non-supervised analysis) the pattern of genes induced by VD and iron-chelating agents, a high similarity was found among modulated genes. Thirty of the 105 genes modulated by iron deprivation were shared with VD modified genes. This finding underscores the potential similarities between both differentiation approaches. […]
compound,measurement,setting,value
"C=C1/C(=C\C=C2/CCC[C@]3(C)[C@@H]([C@H](C)CCCC(C)(C)O)CC[C@@H]23)C[C@@H](O)C[C@@H]1O [calcitriol, 1α,25-dihydroxycholecalciferol D3]",antiproliferative activity,[1],exhibits antiproliferative activity
"C=C1CC[C@H](O)C/C1=C/C=C1\CCC[C@]2(C)[C@@H]([C@H](C)CCCC(C)C)CC[C@@H]12 [VD, cholecalciferol]","markers of granulocyte differentiation / neutrophils (ELA2, PRTN3, CLC, AZU)","[2]; HL60, gene expression",down-regulated
same,"markers of monocytes or activated macrophages (SERPINB8, ITGB2, TREML2, ITGAM)","[2]; HL60, gene expression",up-regulated
same,similarity of genes targeted by iron deprivation with VD,[2]; genome screening,30%
same,genes of the 105 modulated by iron deprivation shared with VD modified genes,[2]; non-supervised analysis,Thirty
same,monocytic markers CD14 and CD11b,[3],induced
same,c-Jun gene expression,[4],induced
CC(=O)N(O)CCCCCNC(=O)CCC(=O)N(O)CCCCCNC(=O)CCC(=O)N(O)CCCCCN [DFO],number of genes modulated by the three different agents,[2],105
"O=C(O)c1ccc(-n2nc(-c3ccccc3O)nc2-c2ccccc2O)cc1 [DFX, 4-[3,5-bis(2-hydroxyphenyl)-[1,2,4]triazol-1-yl]benzoic acid]",number of genes modulated by the three different agents,[2],105
same,monocytic markers CD14 and CD11b,[3],induced
